Patent publication US10463593B2, “Lupin peptide extracts and skin firmness” (LABORATOIRES EXPANSCIENCE, priority 2014, dated 2019)

Key:
[1] = system: proteins of the extracellular matrix (chiefly collagens); assay: Non-enzymatic glycation: incorporation of [3H]-glucose in extracellular matrix proteins deposited by dermal fibroblasts; type: biochemical, human; conditions: 1 mg/ml
Procedure: The non-enzymatic insertion of AGEs in synthesised collagen fibres deposited by human dermal fibroblasts cultured in vitro was examined. A radioactive detection method was used that was based on the incorporation of tritiated glucose in the proteins of the extracellular matrix.
Normal human dermal fibroblasts were cultured in the presence of vitamin C to stimulate the synthesis of collagen. The cells then underwent different operations (freezing/thawing/heating) to inactivate all enzymatic activity.
The matrix layers thus obtained were treated in the presence of the above-described lupin peptide extract at 0.2 and 2%, aminoguanidine HCl at 1 mg/ml (control), 0.2% glucose and [^3H]-glucose radioactive marker for 15 days at 37° C., in the absence of oxygen (rapid re-oxygenation was performed after 7 treatment days).
After incubation, the proteins of the extracellular matrix (chiefly collagens) were extracted using a chaotropic buffer, precipitated with trichloroacetic acid and collected on filters. The radioactivity incorporated in the ECM fibres was measured by liquid scintillation.
The results were analysed statistically using one-factor analysis of variance followed by a Dunnett test, and are given in the Table below: […]

[2] = system: “aged” dermal equivalents seeded with senescent fibroblasts; assay: Contraction of “aged” dermal equivalents (surface area); type: cell-based; conditions: 10 ng/ml; for % “aged” control: area relative to “aged” control; for Area in mm^2 (mean ± SEM): “aged” DEs
Procedure: A model of dermal equivalents containing fibroblasts allows evaluation of the quality of interactions between fibroblasts and collagen fibres. The free contraction/retraction of these dermal equivalents results from the dynamic activity of the cells which apply tensile forces on the collagen network.
The effect of lupin peptide extract on the contraction of dermal equivalents was evaluated. To induce a condition of fibroblast loss of contractile forces, the dermal equivalents were seeded with senescent so-called “aged” fibroblasts (obtained by successive passaging in accordance with the Hayflick model).
“Aged” or normal dermal equivalents were prepared by mixing the fibroblasts (at passage 8 for normal dermal equivalents or at passage 17 for “aged” dermal equivalents) with a collagen solution.
After full gelling, the dermal equivalents were treated with TGFβ at 10 ng/ml (control) or 0.1% lupin peptide extract and incubated for 4 days.
The dermal equivalents were photographed at D1, D3 and D4 to measure their surface area for determination of contraction.

Row | Molecule | Incorporation [^3H]-glucose (cpm) ([1]; 15 days at 37° C., control 5527 ± 464) | Inhibition of glycation ([1]; versus control, p < 0.001) | Contraction of “aged” DEs (in words) ([2]; significant after a treatment time of 4 days) | % “aged” control ([2]; D1) | Area in mm^2 (mean ± SEM) ([2]; D1) | % “aged” control ([2]; D3) | Area in mm^2 (mean ± SEM) ([2]; D3) | % “aged” control ([2]; D4, p < 0.05) | Area in mm^2 (mean ± SEM) ([2]; D4)
1 | Cl.N=C(N)NN [Aminoguanidine, aminoguanidine HCl] | 1219 ± 92 cpm | −78% p < 0.001 |  |  |  |  |  |  | 
2 | TGFβ |  |  | stimulates the contraction of “aged” DEs | 94% | 264.6 ± 5.5 mm^2 | 95% | 285.9 ± 6.7 mm^2 | 85 (p < 0.05) % | 201.3 ± 8.4 mm^2
